# Data published in BindingDB's records for patent US20250313563 (The Broad Institute, 2025).
# “And” between values parts separate entries of the source, which are not always exact repeats. Equal entries are not always repeated.
# Target: Glycogen synthase kinase-3 beta (Homo sapiens, UniProt P49841)
# Experiment: TR-FRET Assay
# Protocol: The assay was performed in a white, 384 well, low volume, flat bottom plate (Grenier). […] The kinase activity was quenched with 2 μL of 250 mM EDTA. A 10 μL volume of 40 nM Strepavidin-d2, 2 nM Tb2+-pSer641 antibody in TR-FRET Detection Buffer (Invitrogen) was then added.
# Chain of Glycogen synthase kinase-3 beta (P49841 whole entry): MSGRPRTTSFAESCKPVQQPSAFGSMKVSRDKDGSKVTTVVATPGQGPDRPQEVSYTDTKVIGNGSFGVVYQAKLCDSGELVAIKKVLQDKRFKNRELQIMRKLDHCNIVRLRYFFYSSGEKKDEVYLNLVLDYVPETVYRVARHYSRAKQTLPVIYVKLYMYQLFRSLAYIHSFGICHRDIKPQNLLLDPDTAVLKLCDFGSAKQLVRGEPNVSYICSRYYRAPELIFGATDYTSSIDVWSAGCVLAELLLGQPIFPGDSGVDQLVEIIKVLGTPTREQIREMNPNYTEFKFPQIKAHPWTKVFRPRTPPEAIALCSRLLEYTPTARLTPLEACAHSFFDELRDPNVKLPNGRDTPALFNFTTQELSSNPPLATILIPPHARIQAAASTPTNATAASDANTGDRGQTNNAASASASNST
row,Structure (SMILES),IC50
1,"CC[C@@]1(c2cccc(C3=CN=NC3)c2)C2=C(CC(C)(C)CC2=O)NC2N=NC(C)=C21 (some centres undefined) [US20250313563, Compound 913025]",100 to 1000 nM
2,"CC[C@]1(c2cccc(-c3cnn4c3CCCC4)c2)C2=C(CC(C)(C)CC2=O)NC2N=NC(C)=C21 (some centres undefined) [US20250313563, Compound 913036]",100 to 1000 nM
3,"CC[C@]1(c2cccc(-c3cnn(C)c3C)c2)C2=C(CC(C)(C)CC2=O)NC2N=NC(C)=C21 (some centres undefined) [US20250313563, Compound 913045]",< 100 nM and 100 to 1000 nM
4,"CC[C@]1(c2cccc(-c3ccncc3F)c2)C2=C(CC(C)(C)CC2=O)NC2N=NC(C)=C21 (some centres undefined) [US20250313563, Compound 913052]",100 to 1000 nM
5,"CC[C@@]1(c2cccc(S(=O)(=O)C(C)C)c2)C2=CN=NC2NC2=C1C(=O)CC(C)(C)C2 (some centres undefined) [US20250313563, Compound 913135]",100 to 1000 nM
6,"CC[C@]1(c2cccc(C(F)(F)F)c2)C2=C(N=NC2)NC2=C1C(=O)N(C)[C@@H]2C [US20250313563, Compound 913454]",100 to 1000 nM
7,"CC[C@]1(c2cccc(C(F)(F)F)c2)C2=C(N=NC2)NC2=C1C(=O)N(C)[C@H]2C [US20250313563, Compound 913473]",100 to 1000 nM
8,"CC[C@@]1(c2cccc(C(F)(F)F)c2)C2=C(N=NC2)NC2=C1C(=O)N(C)[C@@H]2C [US20250313563, Compound 913475]",> 5000 nM
9,"CC[C@@]1(c2cccc(C(F)(F)F)c2)C2=C(N=NC2)NC2=C1C(=O)N(C)[C@H]2C [US20250313563, Compound 913495]",> 5000 nM
10,"CC[C@]1(c2cccc(S(=O)(=O)CC3CC3)c2)C2=CN=NC2NC2=C1C(=O)CC(C)(C)C2 (some centres undefined) [US20250313563, Compound 917150]",100 to 1000 nM
11,"CC[C@@]1(c2cccc(-c3cc(C)ncc3F)c2)C2=CN=NC2NC2=C1C(=O)CC(C)(C)C2 (some centres undefined) [US20250313563, Compound 927346]",1000 to 5000 nM
12,"CCCS(=O)(=O)c1cccc([C@@]2(CC)C3=CN=NC3NC3=C2C(=O)CC(C)(C)C3)c1 (some centres undefined) [US20250313563, Compound 929447]",< 100 nM and 100 to 1000 nM
13,"CC[C@]1(c2cccc(C(F)(F)F)c2)C2=CN=NC2NC2=C1C(=O)N(c1ccccc1)CC2 (some centres undefined) [US20250313563, Compound 929474]",100 to 1000 nM
14,"CC[C@]1(c2cccc(N(C)c3ccnc(OC)c3)c2)C2=CN=NC2NC2=C1C(=O)CC(C)(C)C2 (some centres undefined) [US20250313563, Compound 932642]",100 to 1000 nM
15,"COC(=O)C1(c2ccccc2)CC2(C1)C1=C(N=NC1)NC1=C2C(=O)CC(C)(C)C1 (centres undefined) [US20250313563, Compound 942344]",100 to 1000 nM
16,"CC1(C)CC(=O)C2=C(C1)NC1=C(CN=N1)[C@]21CCN(S(=O)(=O)c2ccccc2F)C1 [US20250313563, Compound 943487]",100 to 1000 nM
17,"CC[C@]1(c2cccc(-c3ccnc(C)c3C)c2)C2=CN=NC2NC2=C1C(=O)CC(C)(C)C2 (some centres undefined) [US20250313563, Compound 943516]",1000 to 5000 nM
18,"CC[C@]1(c2cccc(-c3ccncc3F)c2)C2=CN=NC2NC2=C1C(=O)CC(C)(C)C2 (some centres undefined) [US20250313563, Compound 943518]",100 to 1000 nM
19,"COc1cccc(S(=O)(=O)N2CCC3(CC2)C2=C(N=NC2)NC2=C3C(=O)CC(C)(C)C2)c1 [US20250313563, Compound 943962]",100 to 1000 nM
20,"CC[C@]1(c2cccc(-c3cc(C)nn3C)c2)C2=CN=NC2NC2=C1C(=O)NC(C)(C)C2 (some centres undefined) [US20250313563, Compound 943966]",100 to 1000 nM

row,Structure (SMILES),IC50
1,"CC[C@]1(c2cccc(-c3ccncc3C)c2)C2=CN=NC2NC2=C1C(=O)CC(C)(C)C2 (some centres undefined) [US20250313563, Compound 943990]",100 to 1000 nM
2,"CC[C@]1(c2cccc(-c3ccnc(O)c3)c2)C2=CN=NC2NC2=C1C(=O)CC(C)(C)C2 (some centres undefined) [US20250313563, Compound 943992]",100 to 1000 nM
3,"CC[C@@]1(c2cccc(-c3ccnc4c3CCCC4)c2)C2=CN=NC2NC2=C1C(=O)CC(C)(C)C2 (some centres undefined) [US20250313563, Compound 944033]",100 to 1000 nM
4,"CC1(C)CC(=O)C2=C(C1)NC1=C(CN=N1)[C@@]21COC2(CN(C(=O)C3CCC4(CC3)COC4)C2)C1 [US20250313563, Compound 944075]",100 to 1000 nM
5,"CC[C@]1(c2cccc(N(C)c3nccc(C)n3)c2)C2=CN=NC2NC2=C1C(=O)CC(C)(C)C2 (some centres undefined) [US20250313563, Compound 945328]",100 to 1000 nM
6,"CC[C@]1(c2cccc(C(F)(F)F)c2)C2=C(N=NC2)NC2=C1C(=O)N[C@@H]2C [US20250313563, Compound 945378]",100 to 1000 nM
7,"CC[C@@]1(c2cccc(C(F)(F)F)c2)C2=CN=NC2NC2=C1C(=O)NC[C@@H]2C (some centres undefined) [US20250313563, Compound 945382]",100 to 1000 nM
8,"CC1(C)CC(=O)C2=C(C1)NC1=C(CN=N1)[C@]21COC2(CN(C(=O)C3CCOCC3)C2)C1 [US20250313563, Compound 945407]",100 to 1000 nM
9,"CC[C@]1(c2cccc(-c3ccncc3OC)c2)C2=CN=NC2NC2=C1C(=O)CC(C)(C)C2 (some centres undefined) [US20250313563, Compound 945481]",100 to 1000 nM
10,"Cn1ccc(S(=O)(=O)N2CC[C@@]3(C2)C2=C(N=NC2)NC2=C3C(=O)CC(C)(C)C2)n1 [US20250313563, Compound 945712]",100 to 1000 nM
11,"CC[C@@]1(c2cccc(-c3cncn3C(C)C)c2)C2=CN=NC2NC2=C1C(=O)CC(C)(C)C2 (some centres undefined) [US20250313563, Compound 945725]",< 100 nM and 100 to 1000 nM
12,"CC[C@]1(c2cccc(Nc3ncccn3)c2)C2=CN=NC2NC2=C1C(=O)CC(C)(C)C2 (some centres undefined) [US20250313563, Compound 945943]",100 to 1000 nM
13,"CCCn1nccc1-c1cccc([C@]2(CC)C3=CN=NC3NC3=C2C(=O)CC(C)(C)C3)c1 (some centres undefined) [US20250313563, Compound 946093]",100 to 1000 nM
14,"CC[C@@]1(c2cccc(-c3cc(C)nn3C)c2)C2=CN=NC2NC2=C1C(=O)CC(C)(C)C2 (some centres undefined) [US20250313563, Compound 946097]",100 to 1000 nM
15,"CCN(c1cccc([C@@]2(CC)C3=CN=NC3NC3=C2C(=O)CC(C)(C)C3)c1)c1ncccn1 (some centres undefined) [US20250313563, Compound 947333]",100 to 1000 nM
16,"CC[C@]1(c2cccc(-c3cc(C)ncc3C)c2)C2=C(CC(C)(C)CC2=O)NC2N=NC(C(F)(F)F)=C21 (some centres undefined) [US20250313563, Compound 947363]",100 to 1000 nM
17,"CC[C@@]1(c2cccc(-c3ccnc(C)c3)c2)C2=CN=NC2NC2=C1C(=O)C[C@]1(CCOC1)C2 (some centres undefined) [US20250313563, Compound 947407]",1000 to 5000 nM
18,"CC[C@]1(c2cccc(-c3ccncc3C)c2)C2=CN=NC2NC2=C1C(=O)NC(C)(C)C2 (some centres undefined) [US20250313563, Compound 947576]",1000 to 5000 nM
19,"CC[C@]1(c2cccc(-c3c(C)cncc3C)c2)C2=CN=NC2NC2=C1C(=O)CC(C)(C)C2 (some centres undefined) [US20250313563, Compound 947658]",< 100 nM and 100 to 1000 nM
20,"CC1(C)CC(=O)C2=C(C1)NC1=C(CN=N1)[C@@]21COC2(CN(C(=O)C3(F)CCC3)C2)C1 [US20250313563, Compound 947736]",100 to 1000 nM

row,Structure (SMILES),IC50
1,"CC[C@]1(c2cccc(-c3cc(C)ncc3F)c2)C2=CN=NC2NC2=C1C(=O)NC(C)(C)C2 (some centres undefined) [US20250313563, Compound 947804]",100 to 1000 nM
2,"CC[C@@]1(c2cccc(Oc3ncccn3)c2)C2=CN=NC2NC2=C1C(=O)CC(C)(C)C2 (some centres undefined) [US20250313563, Compound 947808]",100 to 1000 nM
3,"CC[C@]1(c2cccc(S(=O)(=O)C(C)C)c2)C2=C(CC(C)(C)NC2=O)NC2=C1C(C)N=N2 (some centres undefined) [US20250313563, Compound 947870]",100 to 1000 nM
4,"CC[C@@]1(c2cccc(S(=O)(=O)C(C)C)c2)C2=C(CC(C)(C)NC2=O)NC2N=NC(C)=C21 (some centres undefined) [US20250313563, Compound 947876]",100 to 1000 nM
5,"CC[C@@]1(c2cccc(-c3ccnn3C)c2)C2=CN=NC2NC2=C1C(=O)N[C@](C)(COC)C2 (some centres undefined) [US20250313563, Compound 947905]",100 to 1000 nM
6,"Cc1ccc(C(=O)N2CC3(C2)C[C@]2(CO3)C3=C(N=NC3)NC3=C2C(=O)CC(C)(C)C3)cc1C [US20250313563, Compound 948038]",< 100 nM and 100 to 1000 nM
7,"CC[C@@]1(c2cccc(-c3ccncc3Cl)c2)C2=CN=NC2NC2=C1C(=O)NC(C)(C)C2 (some centres undefined) [US20250313563, Compound 948142]",100 to 1000 nM
8,"CC[C@@]1(c2cccc(-c3ccnc(C)c3)c2)C2=CN=NC2NC2=C1C(=O)N[C@]1(CCCOC1)C2 (some centres undefined) [US20250313563, Compound 948152]",100 to 1000 nM
9,"CC[C@@]1(c2cccc(-c3c(Cl)cncc3Cl)c2)C2=CN=NC2NC2=C1C(=O)NC(C)(C)C2 (some centres undefined) [US20250313563, Compound 948515]",100 to 1000 nM
10,"CC[C@]1(c2cccc(-c3ccnn3C)c2)C2=CN=NC2NC2=C1C(=O)NC1(CCOCC1)C2 (some centres undefined) [US20250313563, Compound 948516]",100 to 1000 nM
11,"CC[C@]1(c2cccc(-c3ccnc(C)c3)c2)C2=CN=NC2NC2=C1C(=O)NC(C)(COC)C2 (some centres undefined) [US20250313563, Compound 948521]",1000 to 5000 nM
12,"CC[C@]1(c2cccc(-c3ccncc3C)c2)C2=CN=NC2NC2=C1C(=O)NC1(CCC1)C2 (some centres undefined) [US20250313563, Compound 948523]",100 to 1000 nM
13,"CC[C@]1(c2cccc(-c3c(F)cncc3OC)c2)C2=CN=NC2NC2=C1C(=O)CC(C)(C)[C@H]2F (some centres undefined) [US20250313563, Compound 948545]",100 to 1000 nM
14,"CC[C@]1(c2cccc(-c3c(F)cncc3OC)c2)C2=CN=NC2NC2=C1C(=O)CC(C)(C)[C@@H]2F (some centres undefined) [US20250313563, Compound 948546]",100 to 1000 nM
15,"CC[C@@]1(c2cccc(-c3c(F)cncc3OC)c2)C2=CN=NC2NC2=C1C(=O)CC(C)(C)[C@@H]2F (some centres undefined) [US20250313563, Compound 948548]",100 to 1000 nM
16,"CC[C@@]1(c2cccc(-c3c(F)cncc3OC)c2)C2=C(N=NC2)NC2=C1C(=O)N(Cc1ccccc1)C2 [US20250313563, Compound 948550]",100 to 1000 nM
17,"CC[C@]1(c2cccc(-c3ccnc4c3CCCC4)c2)C2=C(N=NC2)NC2=C1C(=O)N(Cc1ccccc1)C2 [US20250313563, Compound 948551]",100 to 1000 nM
18,"CCC1(c2cccc(-c3cc(C)nnc3C)c2)C2=C(CC(C)(C)NC2=O)NC2N=NC(C)=C21 (centres undefined) [US20250313563, Compound 948766]",100 to 1000 nM
19,"CC[C@@]1(c2cccc(-c3cnn(C)c3C#N)c2)C2=CN=NC2NC2=C1C(=O)NC(C)(C)C2 (some centres undefined) [US20250313563, Compound 948827]",100 to 1000 nM
